Earlier results, collected in PMC5224880, “Discovery and Molecular Basis of a Diverse Set of Polycomb Repressive Complex 2 Inhibitors Recognition by EED” (PLoS ONE, 2017).
Entries after “also recorded” stand apart in the source; their conditions may differ.

Assays:
[1] = system: tumor growth in the xenograft mouse model; set-up: method as in PMID 28135235; details: cited from earlier work
PRC2 = system: PRC2; set-up: method as in PMID 28135235; details: recombinant NCP as substrate; read-out: half-maximum stimulation (Kact) of PRC2 activity; cited from earlier work

Question: Which antitumor activity [1] does the source give for `CS(=O)(=O)c1ccc(-c2cnc(NCc3ccco3)n3cnnc23)cc1` [EED226] here?
Answer: strong antitumor activity; also recorded: completely regressed tumor growth

Question: For “H3K27me3 stimulatory peptide: activation peptide H3K27me3 (21–44) used to stimulate PRC2 activity for the nucleosome substrate”, which EC50 (PRC2) is on record?
Answer: 1 µM
